Data from patent publication US20150173351A1, “MICROCAPSULE” (priority 2012, published 2015).

Assay: Retention rate of the agriculturally active ingredient after xenon light irradiation (photodegradation)
Format: physicochemical
Conditions: active ingredient alone, air-dried on glass petri dish; xenon light (290 nm cutoff), 0.68 W/m^2 at 340 nm, 8 hours, 35° C.; weight % relative to 5 mg
Method: A method for the calculation of a retention rate of the agriculturally active ingredient defined above is more specifically as follows. First, 250 mg of the agriculturally active ingredient is dissolved in 50 mL of a solvent such as acetone, which can sufficiently dissolve the agriculturally active ingredient and also has high volatility, and 1 mL of the solution is added to a glass petri dish having a diameter of 6 cm using a one-mark pipette, spread entirely over the petri dish, and then air-dried at room temperature. The petri dish is covered with a lid made of quartz glass and then set in a weathering tester (manufactured by Q-Lab Corporation under the trade name of Q-SUN Xenon Accelerated Weathering Tester, Model Xe-3) equipped with a borosilicate filter (manufactured by Q-Lab Corporation under the trade name of Daylight-BB Optical Filter) attached thereto. After irradiation with xenon light under the conditions of an intensity at 340 nm of 0.68 W/m^2 and a temperature of 35° C. (35° C. as measured by an insulated black panel thermometer) for 8 hours, the amount of the agriculturally active ingredient remaining on the petri dish is determined by a known determination method such as high-performance liquid chromatography. It is possible to determine a retention rate by calculating as the weight percentage relative to 5 mg of the agriculturally active ingredient used above. The above agriculturally active ingredient used in the microcapsule of the present invention may be any of an insecticidally active component, a fungicidally active component, and a herbicidally active component, and is not particularly limited. The agriculturally active ingredient includes fenpyrazamine, allethrin, and prallethrin. […] It is preferred to use an agriculturally active ingredient which is solid at normal temperature (25° C.), for example fenpyrazamine.

SMILES | retention rate after irradiation with xenon light [%]
C=CCC1=C(C)C(OC(=O)C2C(C=C(C)C)C2(C)C)CC1=O (stereo not drawn) [allethrin] | 3.3
C=CCSC(=O)n1c(N)c(-c2ccccc2C)c(=O)n1C(C)C [fenpyrazamine] | 28.1
C#CCC1=C(C)C(OC(=O)C2C(C=C(C)C)C2(C)C)CC1=O (stereo not drawn) [prallethrin] | 6.4
